In patent US5252495A, “Immunoassay for physostigmine” (priority 1992, dated 1993):

Experiments:
[1] = target: Antibody from Mannich Immunogen; assay: RIA cross-reactivity: competition with labeled physostigmine for antibody from Mannich immunogen; assay type: binding, New Zealand white rabbits; conditions: 1:100, max 1000 ng tested
Procedure: (§1) Antibodies to the physostigmine-BSA immunogen were produced by injecting male New Zealand white rabbits with immunogens formed by either method. Prior to injection, the immunogen was emulsified with an equal volume of complete Freund's adjuvant, purchased from Difco Laboratories of Detroit, Mich. The initial immunization consisted of 0.8 mg of protein injected intracutaneously in multiple dorsal sites of the rabbits. Booster injections containing 0.8 mg of immunogen and incomplete Freund's adjuvant were administered every two months for the next six months. Antisera was collected one week after each booster injection from the central ear vein. The blood was allowed to clot at room temperature and then centrifuged at 1500×g for 15 minutes. The separated serum was stored frozen at -20° C. until assayed for the presence of physostigmine antibody.
In the assay procedure ^3 H-Physostigmine having specificity of 19.0 Ci/mmole and purchased from the Amersham Corp. of Arlington Heights, Ill., was used as tracer. […] Both standard and sample tubes were always analyzed in duplicate. The assay was carried out according to the protocol shown in Table 1 with the reagents were added to the assay tubes in the order shown.
(§2) According to the protocol for the RIA of the present invention, after the addition of antisera, the contents of the tubes were mixed and incubated for 3 hours at 4° C. The antigen which bound to the antibody was separated by adding saturated ammonium sulfate and centrifuging at 2500×g for 15 minutes. After aspiration of the supernatant, the precipitate was washed one time with 50% saturated ammonium sulfate; then the mixture was centrifuged and the supernatent removed. The precipitate was dissolved in 1.0 ml of distilled water, and the solution was transferred to a scintillation vial containing 10.0 ml of acquasol 2.
(§3) The radioactivity which was bound to the antibody was determined in counts per minute with a Beckman LS-3133P Liquid Scintillation Counter. […] The concentration of physostigmine is plotted on the horizontal axis, while the percent inhibition of binding radioactively labeled is plotted on the vertical axis. […] Concentrations of physostigmine in unknown samples were determined according to conventional calculations from the standard curve.
(§4) Competition of the compounds with labeled physostigmine (5000 dpm) for antibody binding sites was determined arbitrarily at 50% inhibition of the physostigmine on the standard curve. Each compound was tested for cross-reactivity with the antibody. The maximum concentration of each compound tested was 1000 ng.

[2] = target: Antibody from Diazo-coupled Immunogen; assay: RIA cross-reactivity: competition with labeled physostigmine for antibody from diazo-coupled immunogen; assay type: binding, New Zealand white rabbits; conditions: 1:150, max 1000 ng tested
Procedure: as §1
In the assay procedure ^3 H-Physostigmine having specificity of 19.0 Ci/mmole and purchased from the Amersham Corp. of Arlington Heights, Ill., was used as tracer. The dilution of tracer (5000 dpm), antibody (1:150) and physostigmine standards (100-10,000 pg) were made using 0.01M phosphate buffer containing 150 mM sodium chloride with a pH of 7.4. […] Both standard and sample tubes were always analyzed in duplicate. The assay was carried out according to the protocol shown in Table 1 with the reagents were added to the assay tubes in the order shown.
as §2, §3, §4

[3] = cited from earlier work
[4] = Stability of physostigmine in rat plasma; assay type: in vitro ADME; conditions: for Amount Recovered: rat plasma
Procedure: To show the stability of physostigmine in biological fluids, physostigmine was added to 2 portions of rat plasma. One half of the plasma was kept at room temperature and the other was kept at 4° C. Aliquots which originally contained 3.6 ng of physostigmine were assayed at various times. […] Since the samples were cooled and processed at 4° C., corrections for loss of physostigmine were unnecessary.

Q: For `CNC(=O)Oc1ccc2c(c1)[C@]1(C)CCN(C)[C@@H]1N2C` [Physostigmine, physostigmine], which “IC50 (50% inhibition of binding of 3H-physostigmine)” value [1] is on record?
A: Its value is 1.35 ng.

Q: And the “IC50 (50% inhibition of binding of 3H-physostigmine)” value [2]?
A: The value was 1.35 ng.

Q: What about the adverse muscarinic effects ([3]; certain patients) of the same compound?
A: Its adverse muscarinic effects is “nausea, vomiting, diarrhea, miosis, excessive salivation and sweating, abdominal cramps, bradycardia, bronchial secretion and bronchospasm”.

Q: What about the “toxic level relative to therapeutic level” value ([3]; clinical use) of the same compound?
A: The value was “toxic at levels very close to those which produce therapeutic results”.

Q: And the “effect of substantial over administration” value ([3]; overdose)?
A: Its value is “cholinergic crisis leading to death”.

Q: What about the other side effects ([3]; thrombophlebitis if administered intravenously) of the same compound?
A: The other side effects was “generalized weakness, muscle cramps, fasciculation, hypotension, and, if administered intraveneously, thrombophlebitis”.

Q: What about the “Amount Recovered” value ([4]; 4° C., 0 min, originally 3.6 ng) of the same compound?
A: The value was 3.6 ng.

Q: And the “Amount Recovered” value ([4]; 4° C., 15 min)?
A: Its value is 3.4 ng.

Q: What about the “Amount Recovered” value ([4]; 4° C., 30 min) of the same compound?
A: The value was 3.6 ng.

Q: What about the “Amount Recovered” value ([4]; 4° C., 1 hr) of the same compound?
A: The value was 3.8 ng.

Q: And the “Amount Recovered” value ([4]; 4° C., 2 hr)?
A: The value was 3.6 ng.

Q: And the “Amount Recovered” value ([4]; 4° C., 3 hr)?
A: The value was 3.6 ng.

Q: What about the “Amount Recovered” value ([4]; 4° C., 4 hr) of the same compound?
A: Its value is 3.6 ng.

Q: And the “Amount Recovered” value ([4]; 23° C., 0 min, originally 3.6 ng)?
A: Its value is 3.6 ng.

Q: And the “Amount Recovered” value ([4]; 23° C., 15 min)?
A: Its value is 3.3 ng.

Q: And the “Amount Recovered” value ([4]; 23° C., 30 min)?
A: Its value is 3.1 ng.

Q: What about the “Amount Recovered” value ([4]; 23° C., 1 hr) of the same compound?
A: Its value is 2.7 ng.

Q: What about the “Amount Recovered” value ([4]; 23° C., 2 hr) of the same compound?
A: The value was 2.8 ng.

Q: What about the “Amount Recovered” value ([4]; 23° C., 3 hr) of the same compound?
A: Its value is 2.8 ng.

Q: What about the “Amount Recovered” value ([4]; 23° C., 4 hr) of the same compound?
A: Its value is 2.8 ng.

Q: And the remaining at 3 h ([4]; rat, plasma, kept at 4° C. for 3 hr, read-out: physostigmine recovered from plasma samples)?
A: Its remaining at 3 h is > 95%.

Q: What about the remaining at 0.25 h ([4]; rat, plasma, processed within 15 min. at room temperature, read-out: physostigmine recovered from plasma samples) of the same compound?
A: The remaining at 0.25 h was > 95%.
